Measured values reported in patent US6316014A, “Microcide composition” (Centro de Bioactivos Quimicos (CBQ), priority 1996, dated 2001).

Tests used:
[1] = system: contamination of culture media; details: plants cultivated in vitro; cited from earlier work
[2] = Water solubility and dissolution of active principle; format: physicochemical
bacteria and fungi = details: EP-A 0 678 516; cited from earlier work
Musa sp. = assay: Development of "in vitro" plants of Musa sp., multiplication phase (scaleup); details: scaleups, standard method 1%
Method: An effective washout of the flasks and lids to be used in the production of in vitro plants was conducted using detergent, rinsing them with sufficient water and to then submerging the bottles in a sodium hypochlorite solution at 0.5% for a time interval never smaller than 3 minutes. Afterwards, the flasks are placed upside down and they should be used totally dry before 24 hours.
Once the culture medium is prepared and reaches a temperature of approximately 60-80° C. it is added the necessary weight of the formulation to obtain a concentration of 35 μg/ml and, then the volume required is poured into each of the flasks proceeding to the planting procedure after 24 hours.
Two scaleup studies were conducted on a Musa sp. culture in the multiplication phase. The death rate percentage during the three assays was 0.81% for the scaleups conducted adding the active principle and 1% for the standard method.
Two scaleup studies were conducted on a Musa sp. culture in the multiplication phase.

[3] = Thermal stability of active principle; format: physicochemical

SMILES: CO[C@@H]1[C@@H](OC(N)=O)[C@@H](O)[C@H](Oc2ccc3c(O)c(NC(=O)c4ccc(O)c(CC=C(C)C)c4)c(=O)oc3c2C)OC1(C)C [Novobiocin]
- Prevention of contamination [1]: without satisfactory results

SMILES: O=[N+]([O-])C(Br)=Cc1ccc(Br)o1 [1-(5-bromophur-2-yl)-2-bromo-2-nitroethene]
- Dissolution rate in an aqueous medium ([2]; aqueous medium): reduced dissolution rate
- Water solubility ([2]; water): close-to-null water solubility
- Antibacterial and antifungal activities (bacteria and fungi): powerful agent with antibacterial and antifungal activities
- Death rate percentage (Musa sp.): 0.81%
- Thermally stable up to [3]: up to 110 °C

SMILES: CN[C@@H]1[C@H](O[C@H]2[C@H](O[C@H]3[C@H](O)[C@@H](O)[C@H](NC(=N)N)[C@@H](O)[C@@H]3NC(=N)N)O[C@@H](C)[C@]2(O)CO)O[C@@H](CO)[C@H](O)[C@H]1O [Dihydrostreptomycin]
- Prevention of contamination [1]: without satisfactory results

SMILES: CO/N=C(\C(=O)N[C@@H]1C(=O)N2C(C(=O)O)=C(COC(C)=O)CS[C@H]12)c1csc(N)n1 [Cefotaxim]
- Prevention of contamination [1]: without satisfactory results
